“And” between values parts separate entries of the source, which are not always exact repeats. Identical values can stand only once.
Key:
[1] = target: T1, Inhibitor of nuclear factor kappa-B kinase subunit beta (Homo sapiens) (UniProt O14920); settings: at 1 µM
T1 sequence (whole entry): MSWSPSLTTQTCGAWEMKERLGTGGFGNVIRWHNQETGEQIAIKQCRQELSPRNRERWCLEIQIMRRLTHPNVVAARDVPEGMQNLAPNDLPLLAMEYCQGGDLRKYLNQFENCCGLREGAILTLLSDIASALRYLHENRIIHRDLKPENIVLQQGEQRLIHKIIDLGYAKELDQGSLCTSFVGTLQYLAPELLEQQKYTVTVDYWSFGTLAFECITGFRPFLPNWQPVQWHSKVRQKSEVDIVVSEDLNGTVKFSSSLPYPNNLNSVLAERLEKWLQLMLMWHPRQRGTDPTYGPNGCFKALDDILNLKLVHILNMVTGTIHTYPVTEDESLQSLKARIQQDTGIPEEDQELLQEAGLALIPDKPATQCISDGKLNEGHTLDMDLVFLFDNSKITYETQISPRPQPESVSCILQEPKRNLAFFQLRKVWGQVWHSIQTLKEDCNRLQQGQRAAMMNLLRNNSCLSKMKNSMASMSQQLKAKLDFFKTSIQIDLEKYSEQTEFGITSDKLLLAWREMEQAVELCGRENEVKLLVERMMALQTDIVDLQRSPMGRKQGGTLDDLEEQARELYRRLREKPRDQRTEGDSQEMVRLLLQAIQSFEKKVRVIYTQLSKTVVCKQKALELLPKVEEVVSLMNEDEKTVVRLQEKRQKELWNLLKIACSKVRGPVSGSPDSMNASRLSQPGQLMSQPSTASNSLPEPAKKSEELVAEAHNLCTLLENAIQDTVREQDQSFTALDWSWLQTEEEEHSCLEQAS

[2] = target: T2, Tyrosine-protein kinase Mer (Homo sapiens) (UniProt Q12866); settings: at 10 µM
T2 sequence (whole entry): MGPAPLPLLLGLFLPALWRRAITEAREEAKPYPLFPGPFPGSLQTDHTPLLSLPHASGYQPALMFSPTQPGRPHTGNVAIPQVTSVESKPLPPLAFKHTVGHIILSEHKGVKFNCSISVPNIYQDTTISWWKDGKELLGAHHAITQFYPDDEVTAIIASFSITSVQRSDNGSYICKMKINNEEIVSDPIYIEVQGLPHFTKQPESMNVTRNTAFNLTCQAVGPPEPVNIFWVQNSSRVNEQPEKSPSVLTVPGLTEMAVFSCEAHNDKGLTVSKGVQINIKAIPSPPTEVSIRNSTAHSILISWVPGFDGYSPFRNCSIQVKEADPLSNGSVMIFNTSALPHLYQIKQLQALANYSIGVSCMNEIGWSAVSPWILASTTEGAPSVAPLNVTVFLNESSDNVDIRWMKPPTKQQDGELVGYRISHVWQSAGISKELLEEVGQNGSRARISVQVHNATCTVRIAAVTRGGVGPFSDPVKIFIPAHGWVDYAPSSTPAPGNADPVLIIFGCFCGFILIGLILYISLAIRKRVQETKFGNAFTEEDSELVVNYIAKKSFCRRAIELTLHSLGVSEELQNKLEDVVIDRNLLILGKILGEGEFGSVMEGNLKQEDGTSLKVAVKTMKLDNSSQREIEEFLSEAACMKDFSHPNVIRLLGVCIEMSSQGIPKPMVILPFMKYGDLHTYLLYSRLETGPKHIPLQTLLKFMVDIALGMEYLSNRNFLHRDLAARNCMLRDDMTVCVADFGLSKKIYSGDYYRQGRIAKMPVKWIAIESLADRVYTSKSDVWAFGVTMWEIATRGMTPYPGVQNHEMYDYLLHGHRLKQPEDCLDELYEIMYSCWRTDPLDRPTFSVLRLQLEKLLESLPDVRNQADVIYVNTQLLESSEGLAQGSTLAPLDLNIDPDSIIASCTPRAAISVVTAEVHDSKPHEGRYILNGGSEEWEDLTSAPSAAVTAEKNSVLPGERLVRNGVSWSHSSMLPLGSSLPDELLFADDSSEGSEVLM

[3] = target: T3, Serine/threonine-protein kinase TBK1 (Homo sapiens) (UniProt Q9UHD2); settings: at 1 µM
T3 sequence (whole entry): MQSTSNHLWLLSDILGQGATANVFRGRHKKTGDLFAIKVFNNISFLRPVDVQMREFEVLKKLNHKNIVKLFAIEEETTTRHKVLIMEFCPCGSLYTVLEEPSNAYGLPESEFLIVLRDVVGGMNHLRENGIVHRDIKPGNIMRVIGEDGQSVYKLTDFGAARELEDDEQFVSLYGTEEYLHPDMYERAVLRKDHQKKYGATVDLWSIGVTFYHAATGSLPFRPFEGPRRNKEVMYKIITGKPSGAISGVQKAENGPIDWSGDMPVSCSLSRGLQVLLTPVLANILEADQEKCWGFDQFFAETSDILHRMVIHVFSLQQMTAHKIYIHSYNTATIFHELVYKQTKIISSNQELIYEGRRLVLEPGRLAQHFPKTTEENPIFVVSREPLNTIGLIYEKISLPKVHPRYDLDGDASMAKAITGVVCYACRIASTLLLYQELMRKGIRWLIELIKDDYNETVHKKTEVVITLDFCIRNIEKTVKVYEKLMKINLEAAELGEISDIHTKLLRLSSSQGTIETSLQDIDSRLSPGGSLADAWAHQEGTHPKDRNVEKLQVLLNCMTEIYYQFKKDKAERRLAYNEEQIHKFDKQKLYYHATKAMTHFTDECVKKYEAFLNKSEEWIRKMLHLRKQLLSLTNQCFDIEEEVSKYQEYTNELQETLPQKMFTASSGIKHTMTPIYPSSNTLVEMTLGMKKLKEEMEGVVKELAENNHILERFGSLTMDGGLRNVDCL

Row | inhibition [1] | inhibition [2] [%] | inhibition [3] | Compound
1 | -1% and 0% | 3 | 0% | Nc1ncc(-c2cccc(S(N)(=O)=O)c2)c2scc(-c3ccc(F)c(Cl)c3)c12
2 | -1% and -4% | -6 | 2% and 1% | COc1cccc(/C=N/Nc2ncnc3c2cnn3-c2cccc(OC)c2)c1
3 | -2% and -1% | 0 | -4% and -3% | c1ccc(-c2n[nH]cc2-c2ccnc(-c3ccc(OCCn4ccnc4)cc3)c2)nc1
4 | 3% and 4% | 3 | 4% and 3% | COc1ccc(-c2ccncc2)cc1C(N)=O
5 | -1% | 71 | -1% and -2% | NC(=O)Cc1ccccc1Oc1nccc(-c2c(-c3ccc(F)cc3)ncn2C2CCNCC2)n1
6 | 1% and 2% | -2 | 17% and 7% | FC(F)(F)c1cccc(Nc2nccc(-c3cnn4nc(-c5ccccc5)ccc34)n2)c1
7 | -3% and -6% | 4 | -1% and 1% | Cc1ccc2c(-c3ccnc(Nc4cccc(C(F)(F)F)c4)n3)c(-c3ccccc3)nn2n1
8 | 10% and 6% | 78 | 41% and 42% | Fc1cccc(COc2ccc(Nc3ncnc4sc(-c5ccco5)cc34)cc2Cl)c1
9 | 0% and -1% | -2 | -3% and -1% | CS(=O)(=O)CCNCc1ccc(-c2ccc3ncnc(Nc4ccc(OCc5cccc(C(F)(F)F)c5)cc4)c3c2)o1
10 | -5% and -1% | 68 | 57% and 54% | COc1cc2c(cc1Nc1nc(Nc3ccsc3C(N)=O)c3cc[nH]c3n1)N(C(=O)CN(C)C)CCC2(C)C
11 | -1% and -2% | -2 | 0% and -2% | Cc1cc(O)cc(C)c1/C=C/c1cncc(C(=O)OC(C)(C)C)c1
12 | -2% | 1 | -4% and -6% | N#Cc1c(NC(=O)c2ccc(F)cc2)sc2c1CCCC2
13 | -5% and -3% | 4 | 3% and 2% | CNC(=O)c1sc(-n2cnc3cc(OC)c(OC)cc32)cc1OCc1ccccc1C(F)(F)F
14 | -2% and -4% | -7 | -3% and -6% | CCN1CCC(C(=O)Nc2n[nH]c3nnc(-c4cccc(F)c4F)cc23)CC1
15 | -1% and 3% | -2 | -1% and -2% | Cc1ccc(C(=O)NC(C)C)cc1-c1ccc(C(=O)NCC2CC2)cc1
16 | -5% and -1% | -6 | 0% and -3% | CCCN1CCC(Oc2cc(Nc3nc(Nc4cccc(F)c4C(N)=O)c4cc[nH]c4n3)c(OC)cc2Cl)CC1
17 | -1% and 4% | 99 | -3% and -2% | c1ccc(COc2ccc(Nc3ncnc4ccc(-c5ccco5)cc34)cc2)cc1
18 | -7% | 5 | 9% and 14% | COc1cc(C=NNc2ncnc3c2cnn3Cc2ccccc2)ccc1O
19 | -9% | 5 | 38% and 33% | COc1cc(Nc2nccc(-c3cnn4ncccc34)n2)cc(OC)c1
20 | -4% and -3% | 50 | 6% and 11% | NC(=O)c1cccc(Nc2nccc(Nc3cccc(F)c3)n2)c1

Row | inhibition [1] | inhibition [2] [%] | inhibition [3] | Compound
21 | -2% and 0% | 61 | 6% and 3% | CNC(=O)c1cccc(C#Cc2cncnc2Nc2ccc(OCc3cccc(F)c3)c(Cl)c2)c1
22 | -2% and -4% | 5 | -2% and 1% | O=S(=O)(CCOCc1ccc(-c2ccc3ncnc(Nc4ccc(OCc5cccc(F)c5)c(Cl)c4)c3c2)o1)c1ccccc1
23 | 13% and -2% | 0 | 3% and 0% | CCn1c(-c2nonc2N)nc2cncc(C(=O)N3CCNCC3)c21
24 | -3% and -1% | -7 | 2% and 1% | NS(=O)(=O)c1cccc(-c2ccc3c(NC(=O)C4CC4)n[nH]c3c2)c1
25 | -6% and -3% | -1 | 37% and 39% | COC(=O)c1sc(-n2cnc3cc(OC)c(OC)cc32)cc1OCc1ccccc1C(F)(F)F
26 | 1% | -6 | 0% and 1% | COc1c(C(N)=O)cc(-c2ccc(Cl)cc2)cc1-c1ccc(S(N)(=O)=O)cc1
27 | -3% and -1% | -3 | -7% and -5% | COc1ccc(-c2coc3ncnc(N)c23)cc1
28 | -1% and -3% | 6 | -2% and 0% | COc1ccc(-c2nn3ncccc3c2-c2ccnc(Nc3cccc(C(F)(F)F)c3)n2)cc1
29 | -2% and -5% | 6 | -4% and -2% | O=C(Nc1n[nH]c2cc(-c3cc(F)ccc3F)ccc12)C1CC1
30 | 6% and 0% | 44 | -5% and -3% | CC1=C(C(=O)Nc2ccc3[nH]nc(C)c3c2)C(c2ccc(C(F)(F)F)cc2)CC(=O)N1 (stereo not given)
31 | -3% and -4% | -2 | -6% and -9% | CN1CCC(n2cnc(-c3ccc(F)cc3)c2-c2ccnc(NCCO)n2)CC1
32 | -1% | -5 | 51% and 43% | CCOc1ccc2c(-c3ccnc(Nc4cc(OC)cc(C(F)(F)F)c4)n3)cnn2n1
33 | -2% and 0% | -5 | -4% and -6% | [O-][S+]1CCN(Cc2ccc(-c3ccc4ncnc(Nc5ccc(OCc6ccccc6)c(Cl)c5)c4c3)o2)CC1
34 | -2% and -3% | 80 | 4% | N#Cc1cccc(Nc2ncc(-c3ccccc3)o2)c1
35 | -4% and 0% | -6 | 75% and 71% | COc1cc(Nc2ncc3c(C)nc(-c4cccc(Oc5ccccc5)c4)n3n2)cc(OC)c1OC
36 | -7% and -1% | -4 | -6% and -9% | COc1ccc(-c2nn3ncccc3c2-c2ccnc(Nc3ccc(F)c(F)c3)n2)cc1
37 | -7% and -4% | -10 | 3% and 1% | COc1cc2ncnc(Nc3ccc(C)c(O)c3)c2cc1OC
38 | 0% and -3% | -3 | -2% and 1% | CCc1nccc2c1nc(-c1nonc1N)n2CC
39 | -5% | -5 | 4% and 5% | COc1ccc(-c2ccc3c(NC(=O)C4CC4)n[nH]c3n2)cc1
40 | -7% and -4% | 2 | -4% and -6% | Cc1ccc(C(=O)NC2CCC2)cc1-c1ccc(C(=O)NCC2CC2)cc1

Source: ChEMBL document CHEMBL2007661, “Compounds: GSK PKIS; Assays: UNC Frye lab” (2012)
